In the CheMixHub viscosity set:

Experiment: xn = mol fraction of the nth substance listed

CCCCCCCCCCCC(=O)OC + C1C[C@@H]2[C@H]3CC[C@H](C3)[C@@H]2C1
viscosity [mPa·s], 100 kPa
Details	x2 = 0.1012	x2 = 0.2004	x2 = 0.3001	x2 = 0.4004	x2 = 0.5021	x2 = 0.6003	x2 = 0.7003	x2 = 0.8001	x2 = 0.8991
293.15 K	3.062	3.012	2.973	2.927	2.896	2.874	2.864	2.877	2.909
298.15 K	2.73	2.69	2.659	2.625	2.599	2.585	2.58	2.595	2.628
303.15 K	2.454	2.419	2.397	2.369	2.349	2.339	2.338	2.356	2.388
308.15 K	2.218	2.191	2.173	2.152	2.134	2.129	2.13	2.149	2.183
313.15 K	2.018	1.994	1.98	1.963	1.951	1.946	1.949	1.969	2.001
318.15 K	1.844	1.824	1.813	1.799	1.789	1.787	1.791	1.811	1.841
323.15 K	1.693	1.676	1.668	1.656	1.647	1.647	1.652	1.672	1.702

CCOc1ccccc1 + CC1COC(=O)O1
viscosity [mPa·s], 101.33 kPa
Details	x2 = 0.1218	x2 = 0.2226	x2 = 0.3591	x2 = 0.4874	x2 = 0.5257	x2 = 0.5674	x2 = 0.6723	x2 = 0.7807	x2 = 0.8898	x2 = 0.9431
293.15 K	1.338	1.436	1.586	1.739	1.789	1.837	1.985	2.17	2.405	2.544
303.15 K	1.119	1.202	1.316	1.44	1.474	1.516	1.63	1.773	1.96	2.078
313.15 K	0.945	1.013	1.11	1.215	1.246	1.278	1.373	1.495	1.651	1.742

CCOC(C)=O + CC#N
303.15 K, 101.33 kPa
Details	viscosity [mPa·s]
x2 = 0.0931	0.3988
x2 = 0.1928	0.3934
x2 = 0.298	0.3881
x2 = 0.3925	0.3819
x2 = 0.4985	0.3753
x2 = 0.5974	0.3676
x2 = 0.6982	0.3591
x2 = 0.8001	0.3486
x2 = 0.8988	0.3402

OCC(O)CO + CC(=O)N(C)C
viscosity [mPa·s], 101 kPa
Details	x1 = 0.124	x1 = 0.241	x1 = 0.353	x1 = 0.459	x1 = 0.56	x1 = 0.656	x1 = 0.748	x1 = 0.836	x1 = 0.92
303.15 K	2.21	3.92	7.04	12.8	29.9	61.6	120.7	204.4	335.7
318.15 K	1.78	3.01	4.79	7.81	17.6	26.3	43.2	75.9	117.4
